In patent publication US20020082268A1, “Therapeutic compounds for the treatment of asthma and allergy, and methods of use thereof” (priority 2000, published 2002):

Experiments:
[1] = target: T1, Histamine H1-receptor (peripheral) (Cavia porcellus, UniProt P31389); test: Histamine H1-receptor (peripheral) binding assay, [3H]pyrilamine, guinea-pig lung membranes; settings: 1 nM [3H]pyrilamine
T1 construct: Aliquots of guinea-pig lung membrane preparations corresponding to 800 μg protein are incubated; from tissue; host or cells: guinea-pig lung membranes
Protocol: Histamine H1-receptor (peripheral) binding assays were performed according to the literature procedure (ref: Dini, S., et al, Agents and Actions, 1991, 33:181-184). Aliquots of guinea-pig lung membrane preparations corresponding to 800 μg protein are incubated for 15 min at 22° C. in 500 μl of 50 mM Na2HPO4/KH2PO4 buffer (pH 7.5) containing 1 nM [^3H]pyrilamine and increasing concentrations of the competing drugs. Nonspecific binding is determined in the presence of 100 μM triprolidine. After incubation, the samples are filtered rapidly under vacuum through glass fiber filters (GF/B, Whatman) and rinsed several times with ice-cold 50 mM Na2HPO4/KH2PO4 using a cell harvester (Brandel). Bound radioactivity is measured with a scintillation counter (LS 6000, Beckman) using a liquid scintillation cocktail (Formula 989, Packard).The reference compound for this assay is pyrilamine.
The results are expressed as percent of control specific binding and as a percent inhibition of control specific binding obtained in the presence of the tested compounds. IC50 values (concentration causing a half-maximal inhibition of control activity) and Hill coefficients (nH) are determined by non-linear regression analysis of the concentration-response curves. These parameters are obtained by Hill equation curve fitting.

[2] = target: T2, 5-LO (UniProt P09917); test: 5-LO enzyme assay (RIA quantitation of 5-HETE); assay type: biochemical; settings: Procedure A (RBL-1 cells) or B (HL-60 cells), not given; read-out: Inhibition of 5-LO: IC50
T2 sequence (P09917 1-674): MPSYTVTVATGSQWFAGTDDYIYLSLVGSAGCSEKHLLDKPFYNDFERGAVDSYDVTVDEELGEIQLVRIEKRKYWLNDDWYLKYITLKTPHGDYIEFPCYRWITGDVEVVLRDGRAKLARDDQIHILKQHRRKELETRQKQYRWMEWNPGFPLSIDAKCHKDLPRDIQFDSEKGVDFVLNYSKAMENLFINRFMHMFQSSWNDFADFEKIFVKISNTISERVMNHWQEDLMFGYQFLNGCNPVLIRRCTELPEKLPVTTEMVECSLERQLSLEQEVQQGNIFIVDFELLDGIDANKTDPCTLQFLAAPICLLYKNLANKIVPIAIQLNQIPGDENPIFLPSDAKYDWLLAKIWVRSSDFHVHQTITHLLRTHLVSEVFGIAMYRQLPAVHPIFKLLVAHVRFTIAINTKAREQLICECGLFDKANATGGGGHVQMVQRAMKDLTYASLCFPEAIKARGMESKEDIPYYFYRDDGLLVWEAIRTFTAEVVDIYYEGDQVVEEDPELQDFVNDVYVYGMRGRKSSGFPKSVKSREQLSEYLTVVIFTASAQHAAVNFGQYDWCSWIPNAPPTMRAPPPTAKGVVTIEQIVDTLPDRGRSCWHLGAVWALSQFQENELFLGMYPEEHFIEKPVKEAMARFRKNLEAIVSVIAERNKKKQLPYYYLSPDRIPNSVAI
Protocol: 5-LO enzyme assays (radio-immuno assays (RIA)) were performed according to literature procedures (ref: (a) Egan, R. W., and Gale, P. H., J. Biol. Chem. 1985, 260:11554-11559; (b) Shimizu, T., Rdamark, O., and Samuelsson, B. Proc. Natl. Acad. Sci. USA, 1984, 81:689-693); (c) Coffey, M. et al., J. Biol. Chem. 1992, 267: 570-576) using commercially available kits or reagents.
Tissue/cell sources: Rat basophilic leukemia cells (RBL-1);
Substrate: Arachidonic acid (AA) at 14 μM;
Reaction: AA→5-HPETE→5-HETE, incubation at 25° C. for 8 min;
Method: RIA quantitation of 5-HETE, reference compound NGDA (nordihydroquaiaretic acid).
Tissue/cell sources: Human differentiated HL-60 cells;
Substrate: Arachidonic acid (AA) at 0.4 μM;
Reaction: AA→5-HPETE→5-HETE, incubation at 37° C. for 10 min;
The results are expressed as percent of control activity and as a percent inhibition of control activity obtained in the presence of the tested compounds.
IC50 values (concentration causing a half-maximal inhibition of control activity) and Hill coefficients (nH) are determined by non-linear regression analysis of the concentration-response curves. These parameters are obtained by Hill equation curve fitting.

[3] = tested on: human differentiated HL-60 cells; test: LTB4 secretion assay in differentiated HL-60 cells (A23187, EIA); assay type: cell-based; settings: 0.5 h, A23187 5 uM, 37 C, 30 min, read-out: Inhibition of LTB4 secretion: IC50
Protocol: The assays were performed using human differentiated HL-60 cells using NDGA as reference compound following the literature procedure (Bennett, C. F. et al, Biochem. J., 1993, 289: 33-39). Substrate A23187 (5 uM) was incubated along with test compound in HL-60 cells at 37 C for 30 min. Reaction product LTB4 was detected by enzymeimmuno assays (EIA) using commercially available kits and a microplate reader.

T1 sequence (P31389 whole entry): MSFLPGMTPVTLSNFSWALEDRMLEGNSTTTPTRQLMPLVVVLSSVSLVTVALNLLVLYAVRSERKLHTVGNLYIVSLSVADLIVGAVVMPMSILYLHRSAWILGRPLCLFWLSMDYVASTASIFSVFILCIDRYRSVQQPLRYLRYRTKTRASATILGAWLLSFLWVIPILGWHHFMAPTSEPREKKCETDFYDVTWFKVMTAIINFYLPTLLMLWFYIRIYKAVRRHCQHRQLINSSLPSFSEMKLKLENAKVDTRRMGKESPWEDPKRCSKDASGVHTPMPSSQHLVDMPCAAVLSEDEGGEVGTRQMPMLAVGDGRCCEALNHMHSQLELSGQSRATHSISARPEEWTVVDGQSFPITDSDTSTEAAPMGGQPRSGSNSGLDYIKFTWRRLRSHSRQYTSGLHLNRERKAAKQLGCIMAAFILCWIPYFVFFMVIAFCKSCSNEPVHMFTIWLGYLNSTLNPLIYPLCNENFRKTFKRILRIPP

| IC50 [1] [µM] | IC50 [2] [µM] | IC50 [3] [µM] | SMILES |
| --- | --- | --- | --- |
| < 1 | < 1 |  | O=c1c2ccccc2nc(CN2CCC(Nc3nc4ccccc4n3Cc3ccc(F)cc3)CC2)n1O [Entry 1] |
| < 1 | > 10 |  | O=C(O)c1ccc2c(=O)n(O)c(CN3CCC(Nc4nc5ccccc5n4Cc4ccc(F)cc4)CC3)nc2c1 [Entry 2] |
| < 1 | < 10 |  | O=C(O)c1ccc2c(=O)n(O)c(CN3CCC(=C4c5ccc(Cl)cc5CCc5cccnc54)CC3)nc2c1 [Entry 3] |
| < 10 | < 10 |  | Cc1cccc2c(=O)n(O)c(CN3CCC(=C4c5ccc(Cl)cc5CCc5cccnc54)CC3)nc12 [Entry 4] |
| < 10 | < 10 |  | O=c1c2cc(F)ccc2nc(CN2CCC(=C3c4ccc(Cl)cc4CCc4cccnc43)CC2)n1O [Entry 5] |
| < 1 | < 10 |  | O=c1c2cc(F)c(F)cc2nc(CN2CCC(Nc3nc4ccccc4n3Cc3ccc(F)cc3)CC2)n1O [Entry 6] |
| < 1 | < 10 |  | COc1ccc2nc(CN3CCC(Nc4nc5ccccc5n4Cc4ccc(F)cc4)CC3)n(O)c(=O)c2c1 [Entry 7] |
| < 0.1 | < 10 |  | O=c1c2cc(O)ccc2nc(CN2CCC(Nc3nc4ccccc4n3Cc3ccc(F)cc3)CC2)n1O [Entry 8] |
| < 0.1 | > 10 |  | O=C(O)c1ccc2nc(CN3CCC(Nc4nc5ccccc5n4Cc4ccc(F)cc4)CC3)n(O)c(=O)c2c1 [Entry 9] |
| < 1 | > 10 |  | O=C(O)c1ccc2nc(N3CCC(Nc4nc5ccccc5n4Cc4ccc(F)cc4)CC3)n(O)c(=O)c2c1 [Entry 10] |
| < 10 | > 10 |  | O=C(O)c1ccc2nc(NC3CCN(c4nc5ccccc5n4Cc4ccc(F)cc4)CC3)n(O)c(=O)c2c1 [Entry 11] |
| < 1 | < 10 | < 10 | O=c1c2ccccc2nc(N2CCC(Nc3nc4ccccc4n3Cc3ccc(F)cc3)CC2)n1O [Entry 12] |
| < 10 |  | < 10 | O=c1c2ccccc2nc(N2CCN(C(c3ccccc3)c3ccc(Cl)cc3)CC2)n1O (centres unmarked) [Entry 13] |
| < 1 | < 10 | < 10 | O=c1c2cc(Br)ccc2nc(N2CCC(Nc3nc4ccccc4n3Cc3ccc(F)cc3)CC2)n1O [Entry 14] |
| < 0.1 | < 1 | < 10 | O=c1c2cc(F)ccc2nc(N2CCC(Nc3nc4ccccc4n3Cc3ccc(F)cc3)CC2)n1O [Entry 15] |
| < 1 | < 10 | < 10 | COc1ccc2nc(N3CCC(Nc4nc5ccccc5n4Cc4ccc(F)cc4)CC3)n(O)c(=O)c2c1 [Entry 16] |
| < 1 |  | < 10 | O=c1c2ccc(F)cc2nc(N2CCC(Nc3nc4ccccc4n3Cc3ccc(F)cc3)CC2)n1O [Entry 17] |
| < 1 |  | < 10 | O=c1c2ccc(Cl)cc2nc(N2CCC(Nc3nc4ccccc4n3Cc3ccc(F)cc3)CC2)n1O [Entry 18] |
| < 1 | < 1 | < 10 | O=c1c2cc(Cl)ccc2nc(N2CCC(Nc3nc4ccccc4n3Cc3ccc(F)cc3)CC2)n1O [Entry 19] |
| < 1 |  | > 10 | COc1cccc2c(=O)n(O)c(N3CCC(Nc4nc5ccccc5n4Cc4ccc(F)cc4)CC3)nc12 [Entry 20] |
| < 1 |  | < 10 | COc1cc2nc(N3CCC(Nc4nc5ccccc5n4Cc4ccc(F)cc4)CC3)n(O)c(=O)c2cc1OC [Entry 21] |
| < 1 |  | < 1 | O=c1c2c(Cl)cccc2nc(N2CCC(Nc3nc4ccccc4n3Cc3ccc(F)cc3)CC2)n1O [Entry 22] |
| < 1 |  | < 10 | Cc1cccc2nc(N3CCC(Nc4nc5ccccc5n4Cc4ccc(F)cc4)CC3)n(O)c(=O)c12 [Entry 23] |
| < 1 |  | > 10 | O=c1c2cc([N+](=O)[O-])ccc2nc(N2CCC(Nc3nc4ccccc4n3Cc3ccc(F)cc3)CC2)n1O [Entry 24] |
